{
  "source": "patent US8518419B2",
  "about": "“Method of treating diabetes” (Garvan Institute of Medical Research, priority 2006, dated 2013)",
  "key": {"[1]": {"system": "Min6 cells", "assay": "Measurement of intracellular ATP concentrations", "assay_type": "cell-based, mouse", "conditions": "DFO treatment", "experimental": "ATP concentrations were measured in islets and in Min6 cells following exposure to low (1 mM) or high glucose (25 mM) for 30 minutes. At the 30 minute timepoint, cells were placed on ice, washed twice in ice-cold PBS and lysed and ATP was measured using a kit purchased from Roche, according to the manufacturer's instructions."}, "[2]": {"system": "Min6 cells", "assay": "Glucose-stimulated insulin secretion (GSIS) in Min6 cells", "assay_type": "cell-based, mouse", "conditions": "DFO treatment"}, "[3]": {"system": "Min6 cells", "assay": "Gene expression in Min6 cells by real-time PCR", "assay_type": "cell-based, mouse", "experimental": "Human pancreatic islets were purified from seven normoglycemic subjects using the modified Ricordi method (Ricordi et al., 1988) as previously described (Gunton et al., 2005). The subjects are described in (Gunton et al., 2005), and were matched for age and body-mass-index. Gene expression was measured by real-time-PCR and was performed in a two-step reaction using the Invitrogen RT-for-PCR kit. The second step was performed in a fluorescent temperature cycler (ABI-Prism 7700 Sequence Detection System, Applied Biosystems) with LightCycler-RNA Master SYBR-Green-I (Roche, Mannheim, Germany) and specific primers for each of the genes (sequences available on request). Every plate included a control gene (TATA-box binding protein/TBP) for every subject. Results were analysed by unpaired t-test.\nIn separate experiments, treated cells were lysed, and RNA isolated for real-time-PCR.\nFollowing treatment with HIF-1α RNAi, the present inventors measured expression of genes in the maturity onset diabetes of the young (MODY) family, insulin-signalling and glucose-uptake and glycolytic genes by real-time PCR. […] In the insulin signaling pathway, HIF-1α knockdown decreased insulin-receptor substrate (IRS)-2 mRNA (FIG. 3E).\nMin6 cells were treated with DFO at the doses indicated for 4 hours."}, "[4]": {"system": "human islets", "assay": "Insulin release of human islets at low and high glucose", "assay_type": "cell-based", "conditions": "DFO 4 hours, low (5 mM) and high (11 mM) glucose", "experimental": "The present inventors were interested to determine whether DFO was beneficial for function of human islets. Islets were isolated from people with normal glucose tolerance and treated with control media or media supplemented with DFO for 4 hours, and insulin release subsequently measured at low (5 mM) and high (11 mM) glucose concentrations."}, "[5]": {"system": "diabetic recipient mouse", "assay": "Mouse islet transplantation into streptozotocin-diabetic mice", "assay_type": "in vivo", "conditions": "mouse islets cultured with 125 μM DFO 2 hours before transplantation, 1 donor:1 recipient, followed 28 days", "experimental": "Islets were isolated from control mice and cultured with either control media or control media plus 125 μM DFO under normoxic conditions or in control media under hypoxic conditions (5% O2) for 2 hours before transplantation. All the islets from 1 donor mouse were transplanted into 1 recipient mouse which had been rendered diabetic (random glucose>22 mM) by streptozotocin treatment.\nTransplant recipients were followed for 28 days, at which time nephrectomy was performed to confirm recurrence of diabetes."}, "[6]": {"system": "diabetic SCID mice", "assay": "Minimal mass human islet transplantation into diabetic SCID mice", "assay_type": "in vivo, mouse", "conditions": "human islets", "experimental": "Human pancreatic islets were isolated from normal glucose tolerant donors as previously described (Gunton et al., 2005). Islets were transplanted under the left kidney capsule of SCID mice which had been rendered diabetic by injection of Alloxan at 95 mg/kg intravenously. Islets were transplanted in adequate mass (2000 IEQ per mouse), or minimal mass (600 IEQ per mouse). In each of the islet isolations, 2000 control-treated IEQ per mouse was adequate to cure diabetes. As expected, 600 control-treated IEQ per mouse was not adequate to control glucose at day 28 post-transplant in any mouse. […]"}},
  "note": "Entries after “also recorded” stand apart in the source; their conditions may differ.",
  "data": [
    {"compound": "CC(=O)N(O)CCCCCNC(=O)CCC(=O)N(O)CCCCCNC(=O)CCC(=O)N(O)CCCCCN", "note": "[DFO, desferrioxamine]", "values": [
      {"measurement": "ATP generation", "setting": "[1]", "value": "increased ATP generation; also recorded: increased ATP concentrations"},
      {"measurement": "glucose stimulated insulin secretion (GSIS)", "setting": "[2]", "value": "substantial increase in GSIS"},
      {"measurement": "expression of ARNT", "setting": "[3]; DFO 4 hours", "value": "did not alter expression of the house-keeping genes TATA-box binding protein (TBP) or transthyretin, or (B) increase expression of ARNT"},
      {"measurement": "expression of housekeeping genes TATA-box binding protein (TBP) and transthyretin", "setting": "[3]; DFO 4 hours", "value": "did not increase expression; also recorded: did not alter expression"},
      {"measurement": "expression of mRNAs for Akt2, GLUT1, GLUT2, HNF4α, IRS2 and phosphoglucomutase (PGM)", "setting": "[3]; DFO 4 hours", "value": "dose-dependently increased expression; also recorded: significantly increased expression"},
      {"measurement": "expression of HNF1α, HNF1β and insulin receptor", "setting": "[3]; DFO 4 hours (data not shown)", "value": "did not alter"},
      {"measurement": "HIF-1α mRNA expression", "setting": "[3]; highest dose of DFO, 4 hours", "value": "small but significant increase; also recorded: showed increased expression"},
      {"measurement": "insulin release (GSIS) of human islets", "setting": "[4]", "value": "markedly increased; also recorded: markedly improved GSIS"},
      {"measurement": "average glucose after transplantation", "setting": "[5]", "value": 11.4, "unit": "mM"},
      {"measurement": "success rate following transplant of 600 IEQ", "setting": "[6]; DFO 125 μM for 4 hours pre-transplantation, day 28", "value": 75, "unit": "%"},
      {"measurement": "cure of diabetes following transplantation of 600 IEQ", "setting": "[6]; DFO 125 μmol/L prior to transplantation, n=8", "value": 75, "unit": "%"}
    ]}
  ]
}
